Data taken from PubChem BioAssay (NCI).
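Interpolation was linear, between the two tested concentrations surrounding the appropriate level; five concentrations were tested over 48 hours in 96-well plates. At the GI50, growth is halved. TGI: total growth inhibition.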

Columns and labels:
Assay in all cases: growth of human tumour cells (NCI), 48 h
ACHN renal = system: ACHN renal
HT29 colon = system: HT29 colon
COLO 205 colon = system: COLO 205 colon
SK-OV-3 ovarian = system: SK-OV-3 ovarian
UACC-62 melanoma = system: UACC-62 melanoma
SN12C renal = system: SN12C renal
SW-620 colon = system: SW-620 colon
A498 renal = system: A498 renal
MALME-3M melanoma = system: MALME-3M melanoma
LOX IMVI melanoma = system: LOX IMVI melanoma

Compound | GI50 (ACHN renal) [µM] | TGI (ACHN renal) [µM] | GI50 (HT29 colon) [µM] | TGI (HT29 colon) [µM] | GI50 (COLO 205 colon) [µM] | TGI (COLO 205 colon) [µM] | GI50 (SK-OV-3 ovarian) [µM] | TGI (SK-OV-3 ovarian) [µM] | GI50 (UACC-62 melanoma) [µM] | TGI (UACC-62 melanoma) [µM] | GI50 (SN12C renal) [µM] | TGI (SN12C renal) [µM] | GI50 (SW-620 colon) [µM] | TGI (SW-620 colon) [µM] | GI50 (A498 renal) [µM] | TGI (A498 renal) [µM] | GI50 (MALME-3M melanoma) [µM] | TGI (MALME-3M melanoma) [µM] | GI50 (LOX IMVI melanoma) [µM] | TGI (LOX IMVI melanoma) [µM]
CC1=C2C[C@H]3[C@@H](CC[C@@H]4CC(NS(C)(=O)=O)CC[C@@]43C)[C@@H]2CC[C@@]2(C1)O[C@@H]1C[C@H](C)CN[C@H]1[C@H]2C (stereo not given in full) | 3.85 | 14.6 | 3.5 | 11.3 | 2.25 | 4.43 | 8.49 | 21.2 | 9.27 | 21.8 | 10.4 | 23.4 | 13.8 | 28.9 | 13.2 | 26.8 | 9.75 | 25.2 | 5.48 | 16.3
CC(C)(O)CS(=O)(=O)Nc1ccc2c(c1)CCN(C(=O)COc1cccnc1)C2 | > 100 | > 100 | 0.743 | > 100 | 0.141 | > 100 | > 100 | > 100 | > 100 | > 100 | 0.0677 | > 100 | 0.0495 | > 100 | > 100 | > 100 | > 100 | > 100 | > 100 | > 100
O=C1/C(=C/c2ccccc2)CN(C(=O)c2cccnc2)C/C1=C\c1ccccc1 | 1.99 | 4.53 | 0.241 | 0.563 | 1.55 | 3.67 | 3.52 | 11.6 | 2.32 | 5.5 | 2.39 | 7.96 | 0.33 | 1.8 | 2.19 | 5.42 | 4.78 | 18.9 | 0.21 | 0.483
